# Tests used:
# [1] = Acute toxicity (LD50, IV); details: mouse, in vivo, male ICR-strain mice, survivors at day-5, read-out: LD50 (50% lethal dose)
# Description: An acute toxicity study was carried out with male ICR-strain mice. LD50 (50% lethal dose) was calculated on the basis of the number of survivors at day-5 after IV administration of the drugs.
# [2] = system: Candida albicans (strain C3); assay: Experimental (mouse) candidiasis, survival ratio; format: in vivo, Candida albicans (strain C3) in male ICR-strain mice; details: 1 hr after infection, day-8, groups of 10 mice
# Description: Male ICR-strain mice, weighing 20-22 g, were used in groups of 10. A 0.2 ml cell suspension of Candida albicans (strain C3) was injected IV via the tail vein, inoculum size being 2.5×10^7 cells/mouse. The test drugs (0.2 ml) were administered IV via the tail vein once at 1 hr after the infection.
# The therapeutic effect of the test drugs was expressed as the survival ratio at day-8 after infection.
smiles,measurement,setting,value
C[C@@H]1[C@H](O)[C@@H](C)/C=C/C=C/C=C/C=C/C=C/C=C/C=C/[C@H](O[C@@H]2O[C@H](C)[C@@H](O)[C@H](N)[C@@H]2O)C[C@@H]2O[C@](O)(C[C@@H](O)C[C@@H](O)[C@H](O)CC[C@@H](O)C[C@@H](O)CC(=O)O[C@H]1C)C[C@H](O)[C@H]2C(=O)O [amphotericin B],LD50 at 120 h,[1],4.1 mg/kg
same,Survival ratio,[2]; 0.125 mg/kg IV once,0%
same,Survival ratio,[2]; 0.25 mg/kg IV once,70%
same,Survival ratio,[2]; 0.5 mg/kg IV once,100%

# Source: patent publication US5023079A, “Heptaene V-28-3 antibiotic derivative” (Ajinomoto Co., Inc., priority 1987, dated 1991)
